In US8362050B2, “Compounds and methods for modulating G protein-coupled receptors” (IRM LLC, priority 2008, dated 2013) one finds EC50 and Emax data, which are given here for 19 molecules.

Read-outs that look alike come from different tables or passages of the source.

The assay addresses T1, Human GPR120 (Homo sapiens, UniProt Q5NUL3).
T1 construct: Ga16 (promiscuous G protein) fusion partner; expressed in transfected cells
T1 sequence (Q5NUL3 with tags, fused parts or gaps): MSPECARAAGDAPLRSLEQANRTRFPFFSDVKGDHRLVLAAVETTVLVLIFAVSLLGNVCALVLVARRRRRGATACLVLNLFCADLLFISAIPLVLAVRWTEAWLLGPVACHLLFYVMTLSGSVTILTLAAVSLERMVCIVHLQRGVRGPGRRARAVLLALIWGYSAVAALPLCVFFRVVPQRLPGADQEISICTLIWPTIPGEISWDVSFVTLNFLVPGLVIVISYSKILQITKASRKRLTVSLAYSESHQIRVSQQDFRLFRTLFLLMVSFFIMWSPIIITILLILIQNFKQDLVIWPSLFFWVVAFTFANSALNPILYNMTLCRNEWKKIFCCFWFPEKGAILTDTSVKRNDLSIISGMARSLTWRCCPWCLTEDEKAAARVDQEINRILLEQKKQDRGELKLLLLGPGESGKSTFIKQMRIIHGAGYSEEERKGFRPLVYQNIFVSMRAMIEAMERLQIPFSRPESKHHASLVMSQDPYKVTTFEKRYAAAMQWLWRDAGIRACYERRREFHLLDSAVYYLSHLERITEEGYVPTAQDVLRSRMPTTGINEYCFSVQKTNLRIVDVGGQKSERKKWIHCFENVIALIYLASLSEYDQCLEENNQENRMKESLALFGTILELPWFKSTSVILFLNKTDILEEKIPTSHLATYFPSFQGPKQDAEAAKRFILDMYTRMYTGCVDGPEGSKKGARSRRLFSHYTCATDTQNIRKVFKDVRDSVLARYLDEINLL
The experiment in a line: FLIPR assay: agonist-induced calcium mobilization in HEK293-GPR120-Ga16 cells. It is filed as cell-based. The conditions noted are these: for EC50: GPR120 activation, calcium mobilization, HEK293-GPR120-Ga16 cells; for Emax: % enhancement of the test compound relative to a known compound, read-out: % Efficiency. How it is done:
Human GPR120 stable cell-line was generated in HEK293 cells. GPR120 (Accession number BC101175) is fused to a promiscuous G protein, Ga16. The expression plasmid is transfected into HEK293 cells using Fugene6 following manufacturer's instruction. Stable cell-lines are generated following drug selection.
FLIPR (Fluorimetric Imaging Plate Reader, Molecular Devices) assays are performed to measure agonist-induced calcium mobilization in the GPR120-expressing cells. One day before the FLIPR assay, HEK293-GPR120-Ga16 cells are seeded into poly-D-lysine coated black-wall-clear bottom 384 well plates (Falcon) at 25,000 cells per well in 40 μl DMEM supplemented with 1% of FBS. The cells are incubated overnight at 37° C. in a humidified incubator. The medium is aspirated on the day of the FLIPR assay. The cells are incubated with 50 μl/well of the assay buffer (HBSS, 20 mM HEPES, 2.5 mM probenecid, pH7.4) containing Fluo-4 NM dye (Invitrogen cat# F36205) at 37° C. for 45 minutes, and then equilibrated at room temperature for 30 minutes. Compounds are dissolved in DMSO and diluted to desired concentrations with assay buffer. Fluorescent output is measured immediately following compound addition (12.5 μl/well) on the FLIPR machine.
An EC50 value was calculated using the change of fluorescent intensity from the reaction initiation. […] In some examples, compounds provided herein have EC50 values from 0.1 μM to 5 μM, while in other examples from 0.5 μM to 5 μM.
The EC50 value in those experiments is given as that concentration of the test compound in question that provoke a response halfway between the baseline and maximum responses. In certain examples compounds of Formula (I) have EC50 values from 0.001 μM to 5 μM. In other examples, compounds of Formula (I) have EC50 values from 0.001 μM to 4 μM. In other examples, compounds of Formula (I) have EC50 values from 0.001 μM to 3 μM. In other examples, compounds of Formula (I) have EC50 values from 0.001 μM to 2 μM. In other examples, compounds of Formula (I) have EC50 values from 0.001 μM to 1 μM. In other examples, compounds of Formula (I) have EC50 values from 0.001 μM to 0.5 μM. […] In other examples, compounds of Formula (I) have EC50 values from 0.001 μM to 0.1 μM.
The % efficiency in those experiments is given as that % enhancement of the test compound in question relative to a known compound. In certain examples compounds of Formula (I) have a % efficiency values from 50% to 150%. In other examples, compounds of Formula (I) have a % efficiency values from 55% to 150%. In other examples, compounds of Formula (I) have a % efficiency values from 60% to 150%. In other examples, compounds of Formula (I) have a % efficiency values from 65% to 150%. In other examples, compounds of Formula (I) have a % efficiency values from 70% to 150%. In other examples, compounds of Formula (I) have a % efficiency values from 75% to 150%. In other examples, compounds of Formula (I) have a % efficiency values from 80% to 150%. In other examples, compounds of Formula (I) have a % efficiency values from 85% to 150%. In other examples, compounds of Formula (I) have a % efficiency values from 90% to 150%. In other examples, compounds of Formula (I) have a % efficiency values from 95% to 150%. In other examples, compounds of Formula (I) have a % efficiency values from 100% to 150%.
Background: Calcium flux is commonly read through the fluorescence of an indicator in the cells.

For orientation: EC50 means the concentration that produces a half-maximal response. For `CCC(C)n1c(-c2ccccc2)cs/c1=N\c1ccc(C(=O)O)cc1` (stereo not shown) [Compound 22, (Z)-4-(3-sec-butyl-4-phenylthiazol-2(3H)-ylideneamino)benzoic acid], the EC50 (read-out: EC50 Range) lay in the range of 0.5 to 1 µM. Same read-out and setting: to `Cc1ccc(-n2cc(-c3cccc(C(=O)O)c3)nn2)c(F)c1` [Compound 67, 3-(1-(2-fluoro-4-methylphenyl)-1H-1,2,3-triazol-4-yl)benzoic acid] belongs 0.1 to 0.25 µM. As for `CCn1c(-c2cc(C(F)(F)F)cc(C(F)(F)F)c2)cs/c1=N\c1ccc(S(=O)(=O)O)cc1` [Compound 2], the Emax came out at 102%. Further, where the note is “read-out: EC50”, the EC50 is 0.396 µM. Besides, the EC50 (read-out: EC50 Range) was 0.25 to 0.5 µM.

On to `CCn1c(-c2ccccc2OC(F)(F)F)cs/c1=N\c1ccc(C(=O)O)cc1` [Compound 12, (Z)-4-(3-ethyl-4-(2-(trifluoromethoxy)phenyl)thiazol-2(3H)-ylideneamino)benzoic acid], for which the EC50 (read-out: EC50 Range) is 0.25 to 0.5 µM.

In the case of `CCn1c(-c2cc(O)ccc2Br)cs/c1=N\c1ccc(C(=O)O)cc1` [Compound 19, (Z)-4-(4-(2-bromo-5-hydroxyphenyl)-3-ethylthiazol-2(3H)-ylideneamino)benzoic acid], the Emax amounted to 81.1%. Further, under “read-out: EC50”, the EC50 was 0.628 µM. In addition, the EC50 (read-out: EC50 Range) was in the range of 0.5 to 1 µM. The corresponding values for `CCn1c(-c2ccccc2NC)cs/c1=N\c1ccc(C(=O)O)cc1` [Compound 45, (Z)-4-(3-ethyl-4-(2-(methylamino)phenyl)thiazol-2(3H)-ylideneamino)benzoic acid] are 87.9%, 0.526 µM and 0.5 to 1 µM. In the same order, the values of `CCn1c(-c2ccccc2OC(F)(F)F)cs/c1=N\c1ccc(S(=O)(=O)O)cc1` [Compound 6, (Z)-4-(3-ethyl-4-(2-(trifluoromethoxy)phenyl)thiazol-2(3H)-ylideneamino)benzenesulfonic acid] are 123%, 0.541 µM and 0.5 to 1 µM. Regarding `CCn1c(-c2ccccc2OC)cs/c1=N\c1ccc(S(=O)(=O)O)cc1` [Compound 28, (Z)-4-(3-ethyl-4-(2-methoxyphenyl)thiazol-2(3H)-ylideneamino)benzenesulfonic acid], where the note is “read-out: EC50 Range”, the EC50 fell in the range of 0.1 to 0.25 µM.

For `CCn1c(-c2ccccc2)c(C)s/c1=N\c1ccc(S(=O)(=O)O)cc1` [Compound 3, (Z)-4-(3-ethyl-5-methyl-4-phenylthiazol-2(3H)-ylideneamino)benzenesulfonic acid], the Emax stood at 85.6%. In addition, the concentration for a half-maximal effect (EC50) (read-out: EC50) came to 0.547 µM. Also, the EC50 (read-out: EC50 Range) lay within 0.5 to 1 µM. With `O=C(O)c1cccc(-n2cc(-c3ccc(F)cc3F)nn2)c1` [Compound 62, 3-(4-(2,4-difluorophenyl)-1H-1,2,3-triazol-1-yl)benzoic acid], the EC50 (read-out: EC50 Range) lay within 0.25 to 0.5 µM. On to `O=C(O)c1cccc(-n2cc(-c3ccc(C(F)(F)F)cc3)nn2)c1` [Compound 58, 3-(4-(4-(trifluoromethyl)phenyl)-1H-1,2,3-triazol-1-yl)benzoic acid], for which the EC50 (read-out: EC50 Range) is 1 to 5 µM.

In the case of `CCn1c(-c2ccccc2OC)cs/c1=N\c1ccc(C(=O)O)cc1` [Compound 32, (Z)-4-(3-ethyl-4-(2-methoxyphenyl)thiazol-2(3H)-ylideneamino)benzoic acid], the EC50 (read-out: EC50 Range) is 0.5 to 1 µM. In the case of `CCn1c(-c2cccc(Cl)c2)cs/c1=N\c1ccc(S(=O)(=O)O)cc1` [Compound 31, (Z)-4-(4-(3-chlorophenyl)-3-ethylthiazol-2(3H)-ylideneamino)benzenesulfonic acid], the Emax turned out to be 114%. Besides, where the note is “read-out: EC50”, the EC50 was 0.078 µM. Further, the EC50 (read-out: EC50 Range) lay in the range of 0.001 to 0.1 µM.

For `CCn1c(-c2cccc3ccccc23)cs/c1=N\c1ccc(C(=O)O)cc1` [Compound 40, (Z)-4-(3-ethyl-4-(naphthalen-1-yl)thiazol-2(3H)-ylideneamino)benzoic acid], the Emax turned out to be 107%. For the same molecule, where the note is “read-out: EC50”, the EC50 worked out at 0.354 µM. For the same molecule, the EC50 (read-out: EC50 Range) was in the range of 0.25 to 0.5 µM.

`CCn1c(-c2ccccc2)cs/c1=N\c1ccc(C(=O)O)c(Br)c1` [Compound 15, (Z)-2-bromo-4-(3-ethyl-4-phenylthiazol-2(3H)-ylideneamino)benzoic acid]: the EC50 (read-out: EC50 Range) fell in the range of 0.1 to 0.25 µM. Same read-out and setting: to `CCn1c(-c2ccccc2O)cs/c1=N\c1ccc(C(=O)O)cc1` [Compound 48, (Z)-4-(3-ethyl-4-(2-hydroxyphenyl)thiazol-2(3H)-ylideneamino)benzoic acid] belongs 0.1 to 0.25 µM. `CCCn1c(-c2ccccc2)cs/c1=N\c1ccc(C(=O)O)cc1` [Compound 16, (Z)-4-(4-phenyl-3-propylthiazol-2(3H)-ylideneamino)benzoic acid]: the Emax is 96.9%. In addition, the EC50 (read-out: EC50) was determined as 0.479 µM. The EC50 (read-out: EC50 Range) was in the range of 0.25 to 0.5 µM.

Turning to `CCn1c(-c2ccccc2)cs/c1=N\c1c(F)c(F)c(C(=O)O)c(F)c1F` [Compound 25, (Z)-4-(3-ethyl-4-phenylthiazol-2(3H)-ylideneamino)-2,3,5,6-tetrafluorobenzoic acid], the EC50 (read-out: EC50 Range) was 0.25 to 0.5 µM. `CCn1c(-c2ccccc2)cs/c1=N\c1ccc(-c2nn[nH]n2)cc1` [Compound 9, (Z)-N-(3-ethyl-4-phenylthiazol-2(3H)-ylidene)-4-(2H-tetrazol-5-yl)aniline]: the Emax amounted to 98.4%. Further, the EC50 (read-out: EC50) amounted to 0.207 µM. The EC50 (read-out: EC50 Range) lay within 0.1 to 0.25 µM.
